{"source": "patent US11484591B2", "about": "“Chemoprevention using controlled-release formulations of anti-interleukin 6 agents, synthetic vitamin A analogues or metabolites, and estradiol metabolites” (OHIO STATE INNOVATION FOUNDATION, priority 2016, dated 2022)", "key": {"[1]": {"system": "OSCC migration and invasion", "conditions": "cited from earlier work"}, "JSCC1 cells": {"system": "JSCC1 cells", "test": "Tumorsphere formation and retention of proliferative capacity", "format": "cell-based, human", "experimental": "JSCC1 cells were seeded at density of 5×10^5 cells in Advanced DMEM+5% FBS+1× GlutaMAX Supplement in Ultra-Low Attachment surface T-25 flasks with DMSO control (0.05%) and 5 μM 4-HPR treatment. Cell suspension cultures were treated for 3 days with fresh treatment every 24 h. While control cultures formed tumorspheres by 24 h, 4-HPR treated cellular interactions were limited to small cell aggregates. (Image scale at 100×.)\nFollowing the treatment described in FIG. 4A above, the JSCC1 control and 4-HPR treated cells were returned to standard tissue culture flasks for seven days in 4-HPR free complete medium (Advanced DMEM+5% FBS+1× GlutaMAX Supplement). […] (Image scale 100×.)\n5×10^5 JSCC1 cells (tumorsphere-formation competent unlike JSCC2 and JSCC3 cells) were plated in complete medium with either vehicle control (0.01% DMSO) or 5 μM 4-HPR in Corning Ultra-Low attachment tissue culture flasks (Sigma-Aldrich, St. Louis, Mo.) Suspension cultures received fresh medium and treatment q d for 7 days, with daily images capture via the Nikon DS-Ri+NIS Element. After 7 days, cells and medium were harvested, centrifuged, and cells replated in standard culture flasks containing complete medium. Images were obtained daily and cells harvested after 7 days in culture. Cell number (hemocytometer counts) and viability (trypan blue exclusion) were obtained."}, "ATP binding sites of FAK": {"biological_target": "ATP binding sites of FAK (Homo sapiens, UniProt Q05397)", "sequence (Q05397 whole entry)": "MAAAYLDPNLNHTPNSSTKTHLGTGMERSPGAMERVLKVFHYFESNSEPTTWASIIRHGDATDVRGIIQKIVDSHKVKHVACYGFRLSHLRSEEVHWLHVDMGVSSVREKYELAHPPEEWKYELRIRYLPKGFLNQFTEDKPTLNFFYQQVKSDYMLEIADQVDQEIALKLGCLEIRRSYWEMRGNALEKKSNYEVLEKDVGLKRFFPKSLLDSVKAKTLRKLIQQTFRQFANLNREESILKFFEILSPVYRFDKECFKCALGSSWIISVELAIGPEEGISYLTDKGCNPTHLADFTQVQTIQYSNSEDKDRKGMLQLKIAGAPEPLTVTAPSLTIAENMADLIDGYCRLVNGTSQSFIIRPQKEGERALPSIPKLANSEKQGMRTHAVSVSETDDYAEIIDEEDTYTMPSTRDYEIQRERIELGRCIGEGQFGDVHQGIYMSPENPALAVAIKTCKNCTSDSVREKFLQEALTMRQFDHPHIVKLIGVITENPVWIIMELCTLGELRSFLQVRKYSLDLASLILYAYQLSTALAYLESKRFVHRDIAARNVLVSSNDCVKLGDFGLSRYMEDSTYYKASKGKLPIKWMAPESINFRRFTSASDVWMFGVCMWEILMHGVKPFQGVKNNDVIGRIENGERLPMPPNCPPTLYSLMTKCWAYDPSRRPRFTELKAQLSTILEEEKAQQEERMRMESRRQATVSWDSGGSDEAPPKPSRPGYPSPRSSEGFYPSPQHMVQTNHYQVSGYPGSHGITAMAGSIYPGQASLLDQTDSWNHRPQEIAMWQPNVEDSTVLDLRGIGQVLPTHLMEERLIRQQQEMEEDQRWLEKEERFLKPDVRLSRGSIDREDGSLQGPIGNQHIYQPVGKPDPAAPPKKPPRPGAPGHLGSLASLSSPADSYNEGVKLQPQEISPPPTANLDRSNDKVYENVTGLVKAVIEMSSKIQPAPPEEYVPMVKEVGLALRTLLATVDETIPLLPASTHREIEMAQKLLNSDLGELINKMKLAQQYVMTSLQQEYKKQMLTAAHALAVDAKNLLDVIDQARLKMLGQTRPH", "conditions": "cited from earlier work"}, "apoptosis": {"system": "apoptosis", "conditions": "reference 21; cited from earlier work"}, "IL-6": {"system": "IL-6", "test": "IL-6 release from OSCC cells (ELISA)", "format": "cell-based, human", "conditions": "5 μM, fresh treatment q.d., base medium, 48 h", "experimental": "Conditioned media from 24-hour sera-deprived JSCC-1, JSCC-2 and JSCC3 cells were analyzed using the Proteome Profiler Human Cytokine XL Array (R&D Systems, Minneapolis, Minn.), with image capture and analyses via the Li-Cor Odyssey imager and Image Studio software (Li-Cor Biosciences, Lincoln, Nebr.). Sera-free conditioned media for IL-6, VEGF, TGF-α and EGF were analyzed by ELISAs (R&D Systems, Minneapolis, Minn.), with data expressed as pg/10^6 cells.\n) 0.01% DMSO (vehicle control), 2) 5 μM 4-HPR, 3) 2.5 μM 2-ME, 4) 1 μg/ml tocilizumab (TOC, […]) 5) 5 μM 4-HPR+2.5 μM 2-ME, 6) 5 μM 4-HPR+1 μg/ml TOC, 7) 2.5 μM 2-ME+1 μg/ml TOC, 8) 5 μM 4-HPR+2.5 μM 2-ME+1 μg/ml TOC. Following treatment, conditioned media were collected (ELISAs for IL-6, sIL-6R, TGF-α, VEGF, EGF, R&D Systems, Minneapolis, Minn.) and nuclear and cytosolic lysates (Nuclear Extract Kit, Active Motif, Carlsbad, Calif.) isolated for EMSAs (STAT3, NFκB p50 and p65, TransAM Transcription Factor ELISAs, Active Motif) and cytosolic and nuclear extracts for Westerns (NE-PER Nuclear and Cytoplasmic Extraction Reagents, ThermoFisher Scientific, Waltham Mass.). […]"}, "[2]": {"biological_target": "ATP binding sites of Pyk2 (Homo sapiens, UniProt Q14289)", "sequence (Q14289 whole entry)": "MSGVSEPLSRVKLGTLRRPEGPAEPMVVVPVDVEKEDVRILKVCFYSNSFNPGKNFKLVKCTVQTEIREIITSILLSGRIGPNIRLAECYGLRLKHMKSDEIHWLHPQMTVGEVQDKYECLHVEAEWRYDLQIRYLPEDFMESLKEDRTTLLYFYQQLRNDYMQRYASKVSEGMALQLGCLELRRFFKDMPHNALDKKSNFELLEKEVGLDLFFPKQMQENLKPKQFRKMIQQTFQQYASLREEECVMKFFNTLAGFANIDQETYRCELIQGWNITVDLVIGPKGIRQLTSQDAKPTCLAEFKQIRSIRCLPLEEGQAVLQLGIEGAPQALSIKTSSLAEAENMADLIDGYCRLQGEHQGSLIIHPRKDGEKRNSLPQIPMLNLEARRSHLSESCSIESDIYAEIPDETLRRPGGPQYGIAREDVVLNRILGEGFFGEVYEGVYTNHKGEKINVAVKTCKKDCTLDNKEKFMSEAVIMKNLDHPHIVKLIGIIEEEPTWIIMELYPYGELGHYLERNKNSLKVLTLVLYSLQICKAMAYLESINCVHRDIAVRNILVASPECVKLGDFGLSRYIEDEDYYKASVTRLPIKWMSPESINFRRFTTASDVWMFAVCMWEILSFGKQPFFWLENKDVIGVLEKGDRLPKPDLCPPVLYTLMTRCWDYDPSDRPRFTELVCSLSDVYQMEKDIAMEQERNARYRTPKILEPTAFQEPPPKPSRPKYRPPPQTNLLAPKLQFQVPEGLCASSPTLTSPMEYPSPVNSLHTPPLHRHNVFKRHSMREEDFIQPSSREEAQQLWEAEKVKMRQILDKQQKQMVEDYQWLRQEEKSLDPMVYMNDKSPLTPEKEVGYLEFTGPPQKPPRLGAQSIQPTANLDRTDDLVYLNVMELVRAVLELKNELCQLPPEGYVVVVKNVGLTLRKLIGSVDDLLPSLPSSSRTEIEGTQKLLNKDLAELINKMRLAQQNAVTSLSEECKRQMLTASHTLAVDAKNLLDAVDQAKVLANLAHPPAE", "conditions": "cited from earlier work"}, "[3]": {"conditions": "JSCC1 cells pretreated with 5 μM, 7 days in 4-HPR free complete medium"}}, "note": "Entries after “also recorded” stand apart in the source; their conditions may differ."}
{"smiles": "CC1=C(/C=C/C(C)=C/C=C/C(C)=C/C(=O)Nc2ccc(O)cc2)C(C)(C)CCC1", "note": "[4-HPR, 4-hydroxy(phenyl)retinamide]", "values": [{"measurement": "OSCC migration and invasion", "setting": "[1]", "result": "significantly inhibits"}, {"measurement": "reattachment and viability after re-plating in standard flasks", "setting": "JSCC1 cells; [3]", "result": "failed to reattach; also recorded: failed to reattach and were uniformly non-vital"}, {"measurement": "trypan blue uptake after re-plating", "setting": "JSCC1 cells; [3]", "result": 100, "unit": "%"}, {"measurement": "tumorsphere formation", "setting": "JSCC1 cells; JSCC1 cells, 5 μM, low attachment flasks", "result": "inhibits tumorsphere formation"}, {"measurement": "anoikis in tumorsphere-competent cells", "setting": "JSCC1 cells; discussion", "result": "induced anoikis"}, {"measurement": "binding to ATP binding site", "setting": "ATP binding sites of FAK", "result": "binds with high affinity"}, {"measurement": "apoptosis-inducing concentration", "setting": "apoptosis", "result": 10, "unit": "µM"}, {"measurement": "increase of IL-6 release", "setting": "IL-6; JSCC1 cells", "result": "~50", "unit": "%"}, {"measurement": "increase of IL-6 release", "setting": "IL-6; JSCC2 cells", "result": "~20", "unit": "%"}, {"measurement": "binding to ATP binding site", "setting": "[2]", "result": "binds with high affinity"}]}
